According to ChEMBL document CHEMBL1201862, “PubChem BioAssay data set” (2004):
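Test compounds were applied to cells in 96-well plates for 48 hours at 5 doses. At the GI50, growth is halved.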 The source made the active and inactive calls. No stated cut-off is given here; in the data, active = GI50 up to about 1.1 µM and inactive = higher.

Columns and labels:
Assay in all cases: NCI tumour cell line growth inhibition, 48 h
[1] = tested on: LXFL 529
[2] = tested on: M19-MEL
[3] = tested on: DLD-1
[4] = tested on: DMS-114
[5] = tested on: HOP-18
[6] = tested on: DMS-273
[7] = tested on: SNB-78
[8] = tested on: XF498
[9] = tested on: RXF 631

Measured: GI50

COC(=O)C1(C)NCCc2c1[nH]c1ccccc21 (centres undefined)
inactive: [1] > 100 µM | [2] > 100 µM | [3] > 100 µM | [4] > 100 µM

C=C1CCC(OC(C)=O)C2(C)C(OC(C)=O)CC3OC3(C)C2C(OC(C)=O)C2C(C)C(=O)OC2C1Cl (centres undefined)
inactive: [1] > 100 µM | [2] > 100 µM | [5] > 100 µM | [6] > 100 µM | [3] > 100 µM | [7] > 100 µM | [4] > 100 µM | [8] > 100 µM | [9] > 100 µM

Cc1nc2ccccn2c1/N=N/c1ccc(C(=O)NN)cc1
inactive: [1] 38.5 µM | [2] > 100 µM | [5] 70.6 µM | [3] 52.4 µM | [7] > 100 µM | [4] 17.4 µM | [8] 75 µM | [9] 31.7 µM

C[S+]=c1sc2ccccc2s1
inactive: [1] > 100 µM | [2] > 100 µM | [5] > 100 µM | [6] > 100 µM | [3] > 100 µM | [4] > 100 µM | [9] > 100 µM

CN(C)C(=N)c1ccccc1
inactive: [1] > 100 µM | [2] > 100 µM | [6] > 100 µM | [7] > 100 µM | [4] > 100 µM | [8] > 100 µM

COC(=O)C1CC2CC(=NNC(N)=O)CC2C1 (centres undefined)
inactive: [1] > 100 µM | [2] > 100 µM | [6] > 100 µM | [3] > 100 µM | [7] > 100 µM | [4] > 100 µM | [8] > 100 µM

COc1ccc(C(=O)C(C(=O)CC(=O)Nc2cccc(C(F)(F)F)c2)c2ccc(OC)cc2)cc1 (centres undefined)
inactive: [1] > 100 µM | [2] > 100 µM | [6] > 100 µM | [3] > 100 µM | [7] > 100 µM | [4] > 100 µM | [8] > 100 µM | [9] > 100 µM

COC(=O)CCC(NC(=S)N/N=C(\C)c1cnccn1)C(=O)OC (centres undefined)
inactive: [1] 57.7 µM | [2] 39.5 µM | [5] 56.1 µM | [3] 48 µM | [7] > 100 µM | [4] 22.1 µM | [8] > 100 µM | [9] 73.5 µM

CC1=C(C(=O)Nc2ccccc2C)C(c2ccc(C3C(C(=O)Nc4ccccc4C)=C(C)NC(C)=C3C(=O)Nc3ccccc3C)cc2)C(C(=O)Nc2ccccc2C)=C(C)N1
inactive: [1] 2.84 µM | [2] 3.83 µM | [6] 3.16 µM | [3] 2.27 µM | [7] 4.16 µM | [4] 3.75 µM | [8] 15.8 µM | [9] 12.8 µM

N#CC(C#N)=c1ccc(=C2N3CCCC3CN2C23CC4CC(CC(C4)C2)C3)cc1 (centres undefined)
inactive: [1] > 100 µM | [2] > 100 µM | [5] > 100 µM | [6] > 100 µM | [3] > 100 µM | [7] > 100 µM | [4] > 100 µM

Cc1ccc(S(=O)(=O)N/N=C2\C(=O)C3CC2C(Cl)C3Cl)cc1 (centres undefined)
inactive: [1] > 100 µM | [5] > 100 µM | [6] > 100 µM | [3] > 100 µM | [4] > 100 µM | [9] > 100 µM

C[n+]1c2ccccc2c(CNC(CS)C(=O)O)c2ccccc21 (centres undefined)
inactive: [1] 32.4 µM | [2] 27.7 µM | [5] 49.1 µM | [6] 18.5 µM | [3] 24.6 µM | [7] 34.3 µM | [8] 24.3 µM | [9] 24.9 µM

Nc1cccc(C(=O)/C=C/c2ccccc2O)c1
inactive: [1] 71.4 µM | [2] > 100 µM | [5] 84.3 µM | [6] > 100 µM | [3] > 100 µM | [7] > 100 µM | [4] 46.7 µM | [8] > 100 µM

[C-]#[N+][C@@H]1C2[C@H](CC[C@@]1(C)O)C(=C)CC[C@@H]2[C@@]1(C)CC[C@H](Cl)C(C)(C)O1 (some centres undefined)
inactive: [1] 3.57 µM | [2] 4.12 µM | [5] 2.71 µM | [3] 2.88 µM | [4] 1.5 µM | [8] 4.71 µM | [9] 6.62 µM

CCC12C=C(C(=O)OC)N3c4ccccc4C4CCN(CCC1)C2C43 (centres undefined)
inactive: [1] 87.1 µM | [2] 75.9 µM | [5] > 100 µM | [6] 59.6 µM | [3] 66.7 µM | [7] > 100 µM | [4] 63 µM

C#CC1(O)CCC2C3CCc4cc(Oc5nc(F)nc(-c6c7ccccc7c7n6CCS7)n5)ccc4C3CC[C@@]21C (some centres undefined)
inactive: [1] 25.1 µM | [2] 33.9 µM | [6] 27.2 µM | [3] 39.8 µM | [4] 11.2 µM | [8] 37.7 µM

NC(=O)C(=O)Cc1nc2ccccc2s1
inactive: [1] > 100 µM | [2] > 100 µM | [5] > 100 µM | [7] > 100 µM | [4] > 100 µM | [8] > 100 µM

CC1=N/C(=C\c2cccc3ccccc23)C(=O)O1
inactive: [1] > 100 µM | [2] > 100 µM | [5] 10.6 µM | [3] > 100 µM | [7] > 100 µM | [4] > 100 µM | [9] > 100 µM

O=C(CC1Sc2ccccc2NC1=O)Nc1ccc([N+](=O)[O-])cc1[N+](=O)[O-] (centres undefined)
inactive: [1] 15.3 µM | [2] 16.1 µM | [5] 3.39 µM | [3] 15.3 µM | [7] 21.2 µM | [4] 14.2 µM | [9] 17.1 µM
